Experimental data taken from PubChem BioAssay AID489035 (Sanford-Burnham Center for Chemical Genomics, 2010).
pIC50: −log10 of the molar value. Calls of active or inactive are those of the source. No rule for the calls is given here.

The molecules below were run on Jurkat NF-kB reporter, TCR-induced, luciferase luminescence (assay: T-cell NF-kB luciferase reporter inhibition – Jurkat cells, luminescence, dose response (AID 489035)).

| SMILES | pIC50 | IC50 |
| --- | --- | --- |
| CNC[C@H](CC1CCCCC1)NC[C@H](Cc1ccccc1)NCCC12CC3CC(CC(C3)C1)C2 | 5.62 | – |
| Cc1cc(O)c2c(c1O)C(=O)[C@]13C(=C2O)C(=O)[C@@H]2[C@@H](O)[C@H]1[C@@H]1[C@H](O)[C@H]3C(=O)C3=C(O)c4c(O)cc(C)c(O)c4C(=O)[C@]312 | > 6.80 | – |
| Cc1ccc(-c2nc(-c3ccccn3)no2)cc1 | 5.63 | – |
| COc1cc(CC(=O)OCC(=O)c2ccc3c(c2)OCCO3)cc(OC)c1OC | – | > 80 µM (inactive) |
| Cc1ccccc1NS(=O)(=O)c1ccc(N2CCCC2=O)cc1 | – | 71.8 µM (inactive) |
| COc1ccccc1-c1nnc2sc(-c3ccc(N(C)C)cc3)nn12 | – | > 80 µM (inactive) |
| COc1cc(-c2noc(C)c2-c2ccc3[nH]ccc3c2)cc(OC)c1OC | – | 25.3 µM (inactive) |
| CCOc1ccc(Br)cc1C1=CC(=O)C[C@H](c2ccc(OC)cc2)C1 | – | > 80 µM (inactive) |
| Cc1ccc(C(=O)N/N=C/c2ccc([N+](=O)[O-])s2)cc1 | 5.90 | – |
| c1ccc(-c2noc(-c3ccc4c(c3)OCO4)n2)nc1 | 6.26 | – |
| CCCC(=O)NC(c1ccccc1Cl)c1ccc2cccnc2c1O (configuration not stated) | 5.55 | – |
| Cc1nc2c(=O)n(C)c(=O)nc-2n(C)n1 | 6.33 | – |
| CCN(CC)S(=O)(=O)c1cc(NC(=O)CNc2cccc(S(=O)(=O)N3CCCC3)c2)ccc1C | – | > 80 µM (inactive) |
| Cc1cc(NC(=O)CSc2nc3ccccc3c(=O)n2C2CCCC2)no1 | – | > 80 µM (inactive) |
| O=C(Nc1nc2ccc(S(=O)(=O)N3CCCC3)cc2s1)C1CCCCC1 | – | > 80 µM (inactive) |
| Cc1cc(C)cc(NC(=O)c2cc(C)n(Cc3cccs3)c2C)c1 | 5.29 | – |
| COc1cc(C(=O)OCCc2cc3ccccc3c(=O)o2)cc(OC)c1OC | – | 21.6 µM (inactive) |
| O=C(Nc1ccc(N2CCN(C(=O)c3ccc(Cl)cc3)CC2)cc1)c1ccc2c(c1)OCCO2 | – | > 80 µM (inactive) |
| CCOC(=O)c1ccccc1NS(=O)(=O)c1ccc(OCC)cc1 | – | 78.3 µM (inactive) |

| SMILES | pIC50 | IC50 |
| --- | --- | --- |
| COc1cc([C@@H]2c3cc4c(cc3[C@H](O)[C@H]3COC(=O)[C@H]23)OCO4)cc(OC)c1OC | – | > 80 µM (inactive) |
| Cc1ccc(Nc2cc(C)nn2-c2nc(C)cc(=O)[nH]2)cc1 | 6.04 | – |
| NS(=O)(=O)c1ccc(Sc2nc3ccccc3s2)c([N+](=O)[O-])c1 | 6.10 | – |
| C=C(C)C(=O)O[C@H]1C/C(C)=C\C(=O)/C=C(\C)[C@H](O)[C@@H]2OC(=O)C(=C)[C@@H]21 | 5.69 | – |
| CCOc1cc(C#N)c(NC(=O)c2cccnc2)cc1OCC | – | > 80 µM (inactive) |
| O=C(Nc1ccc(S(=O)(=O)N2CCOCC2)cc1)c1ccc(CN2CCc3ccccc3C2)cc1 | 4.90 | – |
| Cc1csc2ncnc(NC3CCN(Cc4ccccc4)CC3)c12 | – | > 80 µM (inactive) |
| COC(=O)c1cnc(Oc2ccc(NC(=O)NC(=O)c3c(F)cccc3Cl)cc2)cc1C(F)(F)F | – | > 80 µM (inactive) |
| CCN(CC)c1ccc(/C=N/NC(=O)c2cccc(S(=O)(=O)Nc3ccccc3OC)c2)c(O)c1 | 5.47 | – |
| O=C(N/N=C/c1c(O)ccc2ccccc12)c1cccc(C(F)(F)F)c1 | 4.98 | – |
| COCCCNC(=O)C(=O)Nc1ccc2c(c1)N(S(=O)(=O)c1cccs1)CCC2 | 5.26 | – |
| CC(=O)O[C@@]12CO[C@@H]1C[C@@H](O)[C@@]1(C)C(=O)[C@H](O)C3=C(C)[C@@H](OC(=O)[C@H](O)[C@@H](NC(=O)c4ccccc4)c4ccccc4)C[C@@](O)([C@@H](OC(=O)c4ccccc4)C12)C3(C)C (some centres not stated) | > 6.80 | – |
| CCOC(=O)CSC1=C(C#N)C(c2ccc(C)s2)CC(=O)N1 (configuration not stated) | – | > 80 µM (inactive) |
| CC(C)n1c(CN(C)Cc2ccccc2)nc2c1c(=O)n(C)c(=O)n2C | – | > 80 µM (inactive) |
| COc1ccc(OC)c(-c2nnc3n2N=C(c2ccc(OC)c(OC)c2)CS3)c1 | 5.01 | – |
| CC(C)Nc1ccc(C(CC(N)=O)NC(=O)Cc2ccc(Br)cc2)cc1[N+](=O)[O-] (configuration not stated) | 5.77 | – |
| COc1cccc(N2CCN(C(=O)c3ccc(CS(=O)c4ccccc4Cl)o3)CC2)c1 (configuration not stated) | – | > 80 µM (inactive) |
| O=C(NNc1ccnc2cc(Cl)ccc12)C1CCCCC1 | – | > 80 µM (inactive) |
